Consider 28 compounds from patent publication US6136847A, “Water-soluble trioxanes as potent and safe antimalarial agents” (Johns Hopkins University, priority 1999, dated 2000).

Structures are written as SMILES. ≈ marks a conversion by molar mass, not a printed value. Like-named read-outs stand apart in the source and are kept apart here.

One data set deals with Plasmodium falciparum. The data set can be described thus: In vitro antimalarial assay (Plasmodium falciparum). Type of data set: cell-based. The settings on record: for IC50: Plasmodium falciparum. On the procedure:
(§1) The protozoan Plasmodium falciparum is a causative agent of malaria, the single most critical infectious disease of mankind. The in vitro antimalarial activity of the C3 -substituted trioxanes was determined according to the method described in Posner et al. (13). The in vivo antimalarial activity was determined as described in Peters et al. (14).
Tables 1 and 2 present a tabulation of a number of compounds which have been synthesized along with the IC50 (in nM).

Another data set relates to erythrocytes. In words: Hemolysis of erythrocytes on daily IV administration to rats for 14 days. It is filed as in vivo, rat. The settings on record: daily for 14 days, artelinic acid even at a dose four-fold less than MHP-34a. From the text: 4. They are nontoxic in therapeutic dose range.
Data set [1] in a line: Water solubility in pH 7.4 aqueous solution. Type of data set: physicochemical.
The next data set relates to P. berghei. In words: In vivo antimalarial assay, mice infected with P. berghei malaria. Particulars: Plasmodium berghei. As for the experimental part:
as §1

For another data set, the system named is rats. The settings on record: high doses; cited from earlier work.
The test system of data set [2] is mouse neuroblastoma cells. The settings on record: cited from earlier work.
The mark [3] stands for this setting: C3-Aryl C12-Methoxy Trioxanes, Expansion data (quadruplicate measurements), read-out: Antimalarial Activity, IC50 (Table 1).
The mark [4] stands for this setting: C3-Substituted C12-Methoxy Trioxanes, Expansion data (quadruplicate measurements), read-out: Antimalarial Activity, IC50 (Table 2).
[5] abbreviates: in vitro, read-out: In vitro antimalarial assay: IC50.
Setting [6] is: IV, mice infected with P. berghei, read-out: ED90, IV administration.

Usually IC50 stands for the concentration at which inhibition is half-maximal. In the case of `CO[C@@H]1O[C@@]2(c3ccc(-c4ccccc4)cc3)CC[C@H]3CCCC[C@]31OO2` (relative stereo) [8a], the IC50 in the data set with Plasmodium falciparum (setting [3]) worked out at 0.076 µM.
Same read-out and setting: the figure for `CO[C@H]1O[C@@]2(c3ccc(-c4ccccc4)cc3)CC[C@H]3CCCC[C@]31OO2` (relative stereo) [8b] is 0.068 µM.
Same read-out and setting: then `CO[C@@H]1O[C@@]2(c3ccc(F)cc3)CC[C@H]3CCCC[C@]31OO2` (relative stereo) [9a], with 0.065 µM; and `CO[C@H]1O[C@@]2(c3ccc(F)cc3)CC[C@H]3CCCC[C@]31OO2` (relative stereo) [9b], with 0.03 µM.
Still for that read-out and setting: then `CO[C@@H]1O[C@@]2(c3ccc(F)cc3C)CC[C@H]3CCCC[C@]31OO2` (relative stereo) [10a], with 0.099 µM; and `CO[C@H]1O[C@@]2(c3ccc(F)cc3C)CC[C@H]3CCCC[C@]31OO2` (relative stereo) [10b], with 0.034 µM; and `CO[C@@H]1O[C@@]2(c3ccc(CO)cc3)CC[C@H]3CCCC[C@]31OO2` (relative stereo) [12a], with 0.078 µM.
As to `CO[C@H]1O[C@@]2(c3ccc(CO)cc3)CC[C@H]3CCCC[C@]31OO2` (relative stereo) [12b], the IC50 with Plasmodium falciparum (setting [3]) was 0.015 µM.
Still for that read-out and setting: the figure for `CO[C@@H]1O[C@@]2(c3ccccc3)CC[C@H]3CCCC[C@]31OO2` (relative stereo) [16a] is 0.1 µM.
For the compound `CO[C@H]1O[C@@]2(c3ccccc3)CC[C@H]3CCCC[C@]31OO2` (relative stereo) [16b], the IC50 with Plasmodium falciparum (setting [3]) turned out to be 0.038 µM.
Consider `CO[C@@H]1O[C@@]2(CF)CC[C@H]3CCCC[C@]31OO2` (relative stereo) [118a], for which the concentration for half-maximal inhibition (IC50) in the data set on Plasmodium falciparum (setting [4]) was 0.32 µM.
Still for that read-out and setting: then `CO[C@H]1O[C@@]2(CF)CC[C@H]3CCCC[C@]31OO2` (relative stereo) [118b], with 0.16 µM; and `CO[C@@H]1O[C@@]2(c3ccc(C(F)(F)F)cc3)CC[C@H]3CCCC[C@]31OO2` (relative stereo) [120a], with 0.039 µM; and `CO[C@H]1O[C@@]2(c3ccc(C(F)(F)F)cc3)CC[C@H]3CCCC[C@]31OO2` (relative stereo) [120b], with 0.053 µM.
`O=C(O)c1ccc(CO[C@@H]2O[C@@]3(c4ccc(F)cc4)CC[C@H]4CCCC[C@]42OO3)cc1` (relative stereo) [(p-Carboxy)benzyloxy Trioxane (α)-7a]: the IC50 in the data set on Plasmodium falciparum (setting [5]) was found to be 0.047 µM.
Still for that read-out and setting: the figure for `O=C(O)c1ccc(CO[C@H]2O[C@@]3(c4ccc(F)cc4)CC[C@H]4CCCC[C@]42OO3)cc1` (relative stereo) [(p-Carboxy)benzyloxy Trioxane (β)-7a] is 0.04 µM.
As a reminder, the solubility is the concentration that dissolves in the medium under given conditions. A lower solubility goes with little dissolved substance. Take `CO[C@@H]1O[C@@]2(c3ccc(C(=O)O)cc3)CC[C@H]3CCCC[C@]31OO2` (relative stereo) [MHP-34a, 3-(4'-Carboxyphenyl)-12α-methoxy Trioxane]: in the data set with erythrocytes, the hemolysis of erythrocytes entry is recorded as “no hemolysis of erythrocytes”. For the same compound, the solubility in data set [1] was about 90 mM (≈ 30.1 mg/mL). Also, the ED50 came to 9.5 mg/kg in the data set on P. berghei (po, read-out: In vivo antimalarial assay: ED50, oral) and 19.5 mg/kg in the data set on P. berghei (sc, read-out: In vivo antimalarial assay: ED50, subcutaneous). In addition, the ED90 in the data set with P. berghei (sc, read-out: In vivo antimalarial assay: ED90, subcutaneous) worked out at 92 mg/kg/day; in the data set on P. berghei (setting [6]) it was 60 mg/kg/day; with P. berghei (oral, mice infected with P. berghei, read-out: In vivo antimalarial assay: ED90, oral) it was 46 mg/kg/day. For the same compound, the IC50 in the data set with Plasmodium falciparum (setting [5]) was 1.02 µM.
`CO[C@H]1O[C@@]2(c3ccc(C(=O)O)cc3)CC[C@H]3CCCC[C@]31OO2` (relative stereo) [MHP-34b, 3-(4'-Carboxyphenyl)-12β-methoxy Trioxane] gave a solubility in data set [1] of about 60 mM (≈ 20.1 mg/mL). For the same compound, in the data set with P. berghei (setting [6]), the ED90 was found to be 60 mg/kg/day. Also, the IC50 in the data set with Plasmodium falciparum (setting [5]) was determined as 0.15 µM.
On to `CO[C@@H]1O[C@@]2(c3ccco3)CC[C@H]3CCCC[C@]31OO2` (relative stereo) [compound 13], for which the IC50 in the data set with Plasmodium falciparum (setting [3]) was 0.6 µM.
`C[C@@H]1CC[C@H]2[C@@H](C)C(=O)O[C@@H]3O[C@@]4(C)CC[C@@H]1[C@]32OO4` [Artemisinin, artemisinin, reference compound]: in the data set on Plasmodium falciparum (setting [5]), the IC50 turned out to be 0.01 µM.
`COC1OC2(CCC(C)C)CCC3CCCCC31OO2` (stereo not drawn) [C3 -(CH3)2 CHCH2 CH2 analog]: in the data set on Plasmodium falciparum (relative to C3 methyl analog), the “potency increased by a factor of, over the C3 methyl analog” value stood at 5.
As for `CCOC(=O)Cn1cccc1[C@@H]1O[C@@H]2O[C@@]3(C)CC[C@H]4[C@H](C)CC[C@@H]([C@H]1C)[C@@]24OO3` [MHP-84, 10a-(1'-(Ethoxycarbonylmethyl)pyrrol-2'-yl)-10-deoxoartemisinin], the IC50 with Plasmodium falciparum (printed as In vivo, read-out: In vitro antimalarial assay: IC50) came to 0.0091 µM.
Take `C[C@H]1[C@H](C(=O)O)O[C@@H]2O[C@@]3(C)CC[C@H]4[C@H](C)CC[C@@H]1[C@@]24OO3` [MHP-108, 10α-Carboxy-10-deoxoartemisinin]: the IC50 in the data set on Plasmodium falciparum (setting [5]) was found to be 0.57 µM.
The same measure, in the same setting: then `C[C@H]1[C@H](c2cccn2CC(=O)O)O[C@@H]2O[C@@]3(C)CC[C@H]4[C@H](C)CC[C@@H]1[C@@]24OO3` [MHP-153, 10a-(1'-(Carboxymethyl)pyrrol-2'-yl)-10-deoxoartemisinin], with 0.036 µM.
Regarding `C[C@H]1[C@@H](OCc2ccc(C(=O)O)cc2)O[C@@H]2O[C@@]3(C)CC[C@H]4[C@H](C)CC[C@@H]1[C@@]24OO3` [artelinic acid, Artelinic acid, reference compound], the hemolysis of erythrocytes entry in the data set on erythrocytes was “time-dependent hemolysis”. The compound also had a solubility in data set [1] of about 2 mM (≈ 0.837 mg/mL). In addition, the ED50 with P. berghei (oral, mice infected with P. berghei, comparator, read-out: SD50, oral) amounted to 56 mg/kg.
Regarding `CO[C@H]1O[C@@H]2O[C@@]3(C)CC[C@H]4[C@H](C)CC[C@@H]([C@H]1C)[C@@]24OO3` [artemether], the neurotoxicity in rats entry in the data set on rats was “neurotoxicity has been seen”.
Take `COc1ccc(C23CCC4CCCCC4(OO2)C(OC)O3)cc1` (stereo not drawn) [compound 11]: the IC50 in the data set on Plasmodium falciparum (setting [3]) was over 2.5 µM.
For `C[C@H]1[C@@H](O)O[C@@H]2O[C@@]3(C)CC[C@H]4[C@H](C)CC[C@@H]1[C@@]24OO3` [dihydroartemesisin, Dihydroartemisinin], the “neurotoxicity in mouse neuroblastoma cells” value in data set [2] is recorded as “neurotoxicity has been seen”.
